The values that follow come from PMC7827085 (Pharmaceutics, 2021).

Read-outs that look alike come from different tables or passages of the source.

By IC50 is commonly meant the concentration at which inhibition is half-maximal.

The target in data set [1] is T1, ABCB1/MDR1/Pgp (Homo sapiens, UniProt P08183). To be noted: HEK-293/ABCB1 membrane vesicles.
In data set [2] the target is T2, OATP2B1 (Homo sapiens, UniProt O94956).
T2 sequence (O94956 1-709): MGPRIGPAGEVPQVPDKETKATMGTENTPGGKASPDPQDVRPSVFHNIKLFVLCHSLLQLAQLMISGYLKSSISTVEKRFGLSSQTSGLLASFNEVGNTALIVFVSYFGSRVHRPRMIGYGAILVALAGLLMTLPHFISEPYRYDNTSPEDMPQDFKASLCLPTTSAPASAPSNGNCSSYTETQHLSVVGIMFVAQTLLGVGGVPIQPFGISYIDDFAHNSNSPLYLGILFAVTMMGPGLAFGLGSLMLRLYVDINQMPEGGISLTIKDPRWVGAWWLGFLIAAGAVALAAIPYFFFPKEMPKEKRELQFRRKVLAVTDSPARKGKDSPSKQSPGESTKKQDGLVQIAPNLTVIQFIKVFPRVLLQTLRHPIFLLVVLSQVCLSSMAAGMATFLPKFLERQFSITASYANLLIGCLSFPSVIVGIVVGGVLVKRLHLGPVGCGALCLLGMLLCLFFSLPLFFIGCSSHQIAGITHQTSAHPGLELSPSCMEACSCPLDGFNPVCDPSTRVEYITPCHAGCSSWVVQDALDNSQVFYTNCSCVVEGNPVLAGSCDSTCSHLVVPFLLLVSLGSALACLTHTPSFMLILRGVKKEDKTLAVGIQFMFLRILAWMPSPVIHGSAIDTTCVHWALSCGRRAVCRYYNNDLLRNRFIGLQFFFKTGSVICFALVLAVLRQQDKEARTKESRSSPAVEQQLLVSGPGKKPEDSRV
To be noted: A431-OATP2B1 cells, pyranine uptake.

In a further data set the target is ABCC1/MRP1 (Homo sapiens, UniProt P33527). In words: in vitro.
Another data set addresses T3, OATP1A2 (Homo sapiens, UniProt P46721).
T3 sequence (P46721 1-670): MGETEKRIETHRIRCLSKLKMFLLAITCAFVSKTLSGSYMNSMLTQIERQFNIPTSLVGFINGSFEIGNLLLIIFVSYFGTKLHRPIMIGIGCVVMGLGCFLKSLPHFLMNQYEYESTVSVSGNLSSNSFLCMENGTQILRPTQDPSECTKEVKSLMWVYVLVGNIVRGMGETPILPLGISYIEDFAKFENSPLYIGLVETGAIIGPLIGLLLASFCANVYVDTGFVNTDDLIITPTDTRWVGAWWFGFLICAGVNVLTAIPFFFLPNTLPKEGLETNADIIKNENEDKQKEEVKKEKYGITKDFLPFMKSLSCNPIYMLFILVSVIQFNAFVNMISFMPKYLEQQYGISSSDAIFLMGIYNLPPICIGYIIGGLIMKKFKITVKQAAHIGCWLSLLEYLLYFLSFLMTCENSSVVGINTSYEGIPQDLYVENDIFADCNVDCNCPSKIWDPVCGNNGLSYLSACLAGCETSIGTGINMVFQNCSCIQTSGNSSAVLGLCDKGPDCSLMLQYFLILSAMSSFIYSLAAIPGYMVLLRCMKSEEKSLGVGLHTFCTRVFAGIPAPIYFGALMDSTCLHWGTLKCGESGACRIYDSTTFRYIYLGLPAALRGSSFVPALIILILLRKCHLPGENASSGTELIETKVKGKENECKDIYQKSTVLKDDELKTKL
Kind of data set: cell-based.

For data set [3], the target named is T2, OATP2B1. Kind of data set: cell-based.
The conditions of data set [4]: cited from earlier work.
The next data set deals with T4, wild-type ABCG2 (Homo sapiens, UniProt Q9UNQ0).
T4 construct: expressed in transfected cells; host or cells: HeLa (Sleeping Beauty transposon system)
T4 sequence (Q9UNQ0 1-655): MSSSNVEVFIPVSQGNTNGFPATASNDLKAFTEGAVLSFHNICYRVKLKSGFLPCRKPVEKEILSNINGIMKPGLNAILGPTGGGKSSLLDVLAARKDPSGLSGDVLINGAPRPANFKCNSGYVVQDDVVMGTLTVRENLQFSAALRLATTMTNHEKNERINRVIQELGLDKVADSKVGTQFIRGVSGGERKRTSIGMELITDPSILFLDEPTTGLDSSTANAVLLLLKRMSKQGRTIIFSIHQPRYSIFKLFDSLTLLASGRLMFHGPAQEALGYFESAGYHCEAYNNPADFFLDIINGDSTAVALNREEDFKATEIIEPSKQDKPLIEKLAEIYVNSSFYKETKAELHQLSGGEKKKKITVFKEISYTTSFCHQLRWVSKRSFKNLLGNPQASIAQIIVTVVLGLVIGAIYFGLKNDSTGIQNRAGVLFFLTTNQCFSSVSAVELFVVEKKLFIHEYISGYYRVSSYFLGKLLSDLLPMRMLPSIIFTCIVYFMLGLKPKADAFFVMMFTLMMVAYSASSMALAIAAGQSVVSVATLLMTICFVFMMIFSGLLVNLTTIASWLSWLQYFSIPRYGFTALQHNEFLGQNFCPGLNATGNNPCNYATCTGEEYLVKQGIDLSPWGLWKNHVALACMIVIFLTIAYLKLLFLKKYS
Kind of data set: Hoechst 33342 dye extrusion in HeLa cells expressing wild-type ABCG2. Format: cell-based. To be noted: wild-type ABCG2, 0.2 µM Hoechst 33342, full inhibition by 1 µM Ko143.

In data set [5] the target is T1, ABCB1/MDR1/Pgp. Kind of data set: biochemical. To be noted: Estimated Transporter Inhibition IC50, ABCB1 vesicular assay, ATP-dependent NMQ uptake, HEK-293/ABCB1 inverted membrane vesicles; '-' = no inhibition.

T1 sequence (P08183 whole entry): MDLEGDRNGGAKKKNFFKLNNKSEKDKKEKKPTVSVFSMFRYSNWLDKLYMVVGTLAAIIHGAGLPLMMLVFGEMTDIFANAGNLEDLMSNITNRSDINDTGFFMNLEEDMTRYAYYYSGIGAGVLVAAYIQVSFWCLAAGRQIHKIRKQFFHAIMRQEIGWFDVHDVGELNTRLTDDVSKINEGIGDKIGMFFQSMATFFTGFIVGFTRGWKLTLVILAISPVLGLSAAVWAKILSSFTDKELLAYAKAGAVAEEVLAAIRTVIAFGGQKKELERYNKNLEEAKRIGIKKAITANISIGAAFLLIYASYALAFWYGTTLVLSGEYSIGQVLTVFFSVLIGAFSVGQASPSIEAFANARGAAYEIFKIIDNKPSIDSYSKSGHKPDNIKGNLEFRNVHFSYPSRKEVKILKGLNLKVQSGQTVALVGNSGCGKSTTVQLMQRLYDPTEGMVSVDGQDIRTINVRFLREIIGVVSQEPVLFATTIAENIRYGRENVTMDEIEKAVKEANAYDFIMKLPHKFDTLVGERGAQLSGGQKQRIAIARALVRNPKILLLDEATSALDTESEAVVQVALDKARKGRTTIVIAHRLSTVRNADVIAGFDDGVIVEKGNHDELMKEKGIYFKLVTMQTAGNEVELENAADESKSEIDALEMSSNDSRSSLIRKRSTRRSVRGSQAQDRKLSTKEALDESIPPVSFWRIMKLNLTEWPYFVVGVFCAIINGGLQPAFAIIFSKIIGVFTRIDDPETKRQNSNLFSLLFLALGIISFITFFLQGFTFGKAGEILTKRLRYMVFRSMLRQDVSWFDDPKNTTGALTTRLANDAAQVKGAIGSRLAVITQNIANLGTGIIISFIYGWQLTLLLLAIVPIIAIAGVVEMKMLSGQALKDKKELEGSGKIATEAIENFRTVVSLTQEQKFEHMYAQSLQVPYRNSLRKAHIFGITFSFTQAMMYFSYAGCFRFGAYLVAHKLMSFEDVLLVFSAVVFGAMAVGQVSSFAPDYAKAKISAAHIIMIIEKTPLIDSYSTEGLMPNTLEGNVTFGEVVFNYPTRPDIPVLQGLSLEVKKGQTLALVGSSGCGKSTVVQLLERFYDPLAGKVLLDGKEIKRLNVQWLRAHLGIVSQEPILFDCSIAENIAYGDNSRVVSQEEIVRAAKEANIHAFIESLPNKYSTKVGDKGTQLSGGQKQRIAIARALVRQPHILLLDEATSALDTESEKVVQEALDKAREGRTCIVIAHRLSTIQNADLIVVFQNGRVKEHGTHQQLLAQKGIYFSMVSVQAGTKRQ
Chain of ABCC1/MRP1 (P33527 whole entry): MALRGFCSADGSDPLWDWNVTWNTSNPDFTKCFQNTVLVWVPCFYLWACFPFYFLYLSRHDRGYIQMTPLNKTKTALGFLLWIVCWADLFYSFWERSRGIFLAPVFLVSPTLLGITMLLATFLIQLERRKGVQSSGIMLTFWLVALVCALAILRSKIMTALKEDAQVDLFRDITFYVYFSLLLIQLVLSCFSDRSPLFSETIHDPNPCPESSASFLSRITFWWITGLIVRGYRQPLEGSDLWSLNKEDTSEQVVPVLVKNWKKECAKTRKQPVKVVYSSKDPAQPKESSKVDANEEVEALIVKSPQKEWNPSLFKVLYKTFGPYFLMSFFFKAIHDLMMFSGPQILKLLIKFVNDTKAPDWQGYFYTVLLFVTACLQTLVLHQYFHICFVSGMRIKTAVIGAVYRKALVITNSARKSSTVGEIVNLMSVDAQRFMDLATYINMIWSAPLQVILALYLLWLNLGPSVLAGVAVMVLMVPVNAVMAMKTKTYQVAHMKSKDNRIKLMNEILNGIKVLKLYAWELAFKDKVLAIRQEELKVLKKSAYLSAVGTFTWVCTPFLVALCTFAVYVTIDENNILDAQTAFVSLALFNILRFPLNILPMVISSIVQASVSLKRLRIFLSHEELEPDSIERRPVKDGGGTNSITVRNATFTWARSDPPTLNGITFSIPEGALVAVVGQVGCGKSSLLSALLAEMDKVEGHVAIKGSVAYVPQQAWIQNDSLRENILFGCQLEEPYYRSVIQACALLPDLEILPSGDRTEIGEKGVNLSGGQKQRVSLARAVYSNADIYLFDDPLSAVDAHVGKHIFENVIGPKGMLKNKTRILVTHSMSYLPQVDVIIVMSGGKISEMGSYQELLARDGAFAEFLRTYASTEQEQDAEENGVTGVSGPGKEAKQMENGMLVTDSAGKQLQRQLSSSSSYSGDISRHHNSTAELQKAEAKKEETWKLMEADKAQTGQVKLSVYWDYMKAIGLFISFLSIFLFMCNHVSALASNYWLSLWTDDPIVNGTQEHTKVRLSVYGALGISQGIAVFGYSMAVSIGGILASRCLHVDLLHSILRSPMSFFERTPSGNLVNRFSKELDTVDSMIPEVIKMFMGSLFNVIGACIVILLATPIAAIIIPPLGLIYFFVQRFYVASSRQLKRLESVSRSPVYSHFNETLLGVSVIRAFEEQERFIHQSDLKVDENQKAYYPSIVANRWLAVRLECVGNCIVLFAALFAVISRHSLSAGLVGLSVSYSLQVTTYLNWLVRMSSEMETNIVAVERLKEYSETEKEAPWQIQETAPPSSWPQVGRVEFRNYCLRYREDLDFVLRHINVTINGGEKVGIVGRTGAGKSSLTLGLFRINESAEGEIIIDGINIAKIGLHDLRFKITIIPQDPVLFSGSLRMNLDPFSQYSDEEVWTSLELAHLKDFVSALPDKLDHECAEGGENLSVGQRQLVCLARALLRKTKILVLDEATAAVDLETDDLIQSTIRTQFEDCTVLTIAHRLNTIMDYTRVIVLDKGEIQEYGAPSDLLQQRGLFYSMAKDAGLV

Consider `NC(=O)c1nc(F)c[nH]c1=O` [favipiravir], for which, on ABCB1/MDR1/Pgp [1], the “Effect on ABCB1 ATP-dependent NMQ uptake (in words)” value is “no inhibitory effect”. In addition, on OATP2B1 [2], the “Effect on OATP2B1 activity (in words)” value is given as “no interaction”. The IC50 at 3 min against ABCC1/MRP1 (inverted membrane vesicles from Sf9 cells expressing ABCC1, probe 3H-estradiol-17b-glucuronide (ETGB), 0.2 µM) is > 50 µM.
Regarding `CCN(CCO)CCCC(C)Nc1ccnc2cc(Cl)ccc12` (centres unmarked) [hydroxychloroquine], the “Effect on ABCB1 ATP-dependent NMQ uptake (in words)” value at ABCB1/MDR1/Pgp [1] is reported as “practically no effect”. Further, the IC50 at OATP1A2 was found to be 18.9 µM; on OATP2B1 [3], 84 µM. Also, the “Effect on OATP2B1 activity (in words)” value at OATP2B1 [2] is “only modest inhibition”. In addition, the IC50 at 3 min at ABCC1/MRP1 was > 50 µM.
With `CCC(CC)COC(=O)[C@H](C)N[P@](=O)(OC[C@H]1O[C@@](C#N)(c2ccc3c(N)ncnn23)[C@H](O)[C@@H]1O)Oc1ccccc1` [remdesivir], the IC50 against OATP1A2 is 3.8 µM; against OATP2B1 [3], 3.8 µM; on ABCB1/MDR1/Pgp [5], > 20 µM. Besides, in data set [4], the “Plasma concentration, peak values” was 3000 to 5000 nM. Also, the “Reported peak plasma concentration” value in data set [4] (reported, reference not given) is given as “about 5 μM”. For the same compound, the “Effect on Hst dye extrusion by ABCG2 in HeLa cells (in words)” value at wild-type ABCG2 was “slight effect at relatively high concentrations”.
